From US20170065952A1, “PICKERING EMULSION FORMULATIONS” (THE UNIVERSITY OF BIRMINGHAM, priority 2014, published 2017)

How the values were obtained:
[1] = Experimental: Known quantity of the W/O emulsion (e.g. 45 g) was gently placed on the top of a known quantity of distilled water (e.g. 70 g) termed “external” water/aqueous phase. Calibrated conductivity probe was placed in the external aqueous phase and readings were taken on daily intervals.
(§1) Solid lipid particles were prepared according to Example 2C. Tripalmitin particles contained the lipophilic active (Sudan III) and were stabilised in the aqueous dispersion by Tween™ 20. After preparation the excess surfactant was dialysed off to distilled water.
W/O emulsions were prepared according to Example 3C, 3D and 3E. Hydrophilic active (NaCl) was added to the aqueous included phase and sunflower or silicone or mineral oils were used as the continuous phase.
The release of NaCl was measured as per Example 5.

[2] = Release of lipophilic active B (DMP) from O/W emulsion by dialysis into external water, UV-Vis; format: physicochemical; settings: O/W emulsion (tripalmitin particles 2J, WPI), after 2 days of storage
Experimental: Solid lipid particles were prepared according to Example 2J. Tripalmitin matrix contained lipophilic active A (Sudan III) and were stabilised in aqueous dispersion by WPI.
O/W emulsions were prepared according to Example 4. A model lipophilic active B (DMP-dimethyl phthalate) was added to the sunflower oil included phase.
Known quantity of the O/W emulsion (e.g. 10 g) was placed inside a pre-hydrated cellulose tube and dialysed to a known quantity of distilled water (e.g. 100 g), termed “external” water/aqueous phase. An aliquot (ca. 1 mL) of the external water was taken at time intervals, pressed through a syringe filter (0.2 μm pore size) and analysed using UV-Vis spectroscopy (at λ=290 nm). Using previously obtained calibration line and the partitioning (sunflower oil/water) data of DMP, the concentration of the released active B was calculated.

[3] = Release of lipophilic active A (Sudan III) from O/W emulsion into external oil phase, UV-Vis; format: physicochemical; settings: O/W emulsion (tripalmitin particles 2J, WPI, sunflower oil), observation period of 4 days
Experimental: Known quantity of the O/W emulsion (e.g. 40 g) was placed in the beaker and gently topped up with a known quantity of sunflower oil (e.g. 50 g), termed “external” oil phase. An aliquot (ca. 1 mL) of the external oil phase was taken at time intervals, pressed through a syringe filter (0.2 μm pore size) and analysed using UV-Vis spectroscopy (at λ=510 nm). Using previously obtained calibration line, the concentration of the released active A was calculated.

[4] = Release of lipophilic active (Sudan III) from W/O emulsion into external oil phase, UV-Vis; format: physicochemical; settings: W/O emulsion Example 3C (tripalmitin particles 2C, Tween 20, sunflower oil continuous phase); burst release
Experimental: as §1

[Cl-].[Na+] [NaCl]
release of hydrophilic active to external water phase ([1]; W/O emulsion Example 3C, sunflower oil, over 17 days): very small
release of hydrophilic active upon heating ([1]; W/O emulsion, heating to 40° C., fat crystals at interface melt): all dispersed water phase with NaCl is delivered to the external water phase
release of the internal water phase with NaCl ([1]; water-in-mineral-oil emulsions (Example 3D), partially sintered particles): lower than for the non-sintered silicone oil emulsions and higher than the sintered sunflower oil emulsions
release of NaCl to external water phase ([1]; water-in-silicone-oil emulsions (Example 3E), non-sintered particles): Relatively high release

COC(=O)c1ccccc1C(=O)OC [DMP, dimethyl phthalate]
release of active B from the dispersed sunflower oil phase [2]: 100%

Oc1ccc2ccccc2c1N=Nc1ccc(N=Nc2ccccc2)cc1 [Sudan III]
release of active A from the lipid particles [3]: below 1%
time of storage to complete release of lipophilic active [4]: ≤ 10 h
